Measured values taken from US20080009418A1, “Selective Inhibitors” (Alchemia LTD., priority 2004, published 2008).

Tests used:
Mouse urotensin (mUR2) = target: T1, Mouse urotensin (mUR2) (Mus musculus, UniProt Q8VIH9); assay: Radioligand binding, mouse urotensin mUR2 membranes, FlashPlate, [125I]-Urotensin II; conditions: compound at 10 μM, [125I]-Urotensin II
T1 construct: purchased Perkin Elmer Biosignal
T1 sequence (Q8VIH9 1-385): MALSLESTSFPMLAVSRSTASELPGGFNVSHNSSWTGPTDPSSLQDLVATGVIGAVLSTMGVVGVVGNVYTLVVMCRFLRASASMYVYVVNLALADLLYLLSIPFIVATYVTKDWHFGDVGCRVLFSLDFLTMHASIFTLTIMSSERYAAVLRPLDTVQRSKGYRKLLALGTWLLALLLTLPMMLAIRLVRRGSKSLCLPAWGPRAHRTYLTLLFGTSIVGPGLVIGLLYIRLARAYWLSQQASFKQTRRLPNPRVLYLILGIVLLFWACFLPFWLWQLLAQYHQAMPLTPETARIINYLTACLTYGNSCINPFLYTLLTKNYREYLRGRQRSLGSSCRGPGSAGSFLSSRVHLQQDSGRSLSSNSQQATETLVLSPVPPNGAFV
Procedure, shortened: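 Cloned mouse urotensin (mUR2) receptor membranes from Perkin Elmer Biosignal were immobilized in FlashPlate microplates using a proprietary coating. Each well got 19.5 μl buffer, then 0.5 μl of DMSO, reference ligand, or compound. Adding 5 μl of [125I]-Urotensin II, diluted to 5× final concentration in binding buffer, started binding. Plates were sealed with TopSeal-A and incubated 1 hour at room temperature in the dark. Wells were counted for 30 seconds each on a TopCount after a 60-second delay, and percentage inhibition was calculated.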

Human κ-Opioid (KOP) = target: T2, Human κ-Opioid (KOP) (Homo sapiens, UniProt P41145); assay: Radioligand binding, human κ-opioid (KOP) membranes, filtration, [3H]-Diprenorphine; conditions: compound at 10 μM, [3H]-Diprenorphine
T2 construct: purchased Perkin Elmer Biosignal
T2 sequence (P41145 whole entry): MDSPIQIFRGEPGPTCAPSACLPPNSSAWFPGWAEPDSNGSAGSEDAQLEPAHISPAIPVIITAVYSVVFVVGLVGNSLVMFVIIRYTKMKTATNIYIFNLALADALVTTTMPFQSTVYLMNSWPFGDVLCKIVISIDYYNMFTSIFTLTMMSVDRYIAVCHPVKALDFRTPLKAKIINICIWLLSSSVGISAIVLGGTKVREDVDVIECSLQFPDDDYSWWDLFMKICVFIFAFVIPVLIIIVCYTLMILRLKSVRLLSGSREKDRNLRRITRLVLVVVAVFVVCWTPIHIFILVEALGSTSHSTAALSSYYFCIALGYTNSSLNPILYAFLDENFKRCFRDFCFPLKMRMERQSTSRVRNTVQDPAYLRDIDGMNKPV
Procedure, shortened: (§1)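 Percent inhibition of radioligand binding measured on recombinant human membranes: NK1 with [125I]-Substance P, KOP with [3H]-Diprenorphine. Incubation 1 h at room temperature, then harvest onto 0.3% PEI-soaked filters, cold Tris-HCl pH 7.4 washes and scintillation counting; non-specific binding from reference ligand wells.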

Human Melanocortin (MC3) = target: T3, Human Melanocortin (MC3) (Homo sapiens, UniProt P41968); assay: Radioligand binding, human melanocortin MC3 membranes, FlashPlate, [125I]-NDP-αMSH; conditions: compound at 10 μM, [125I]-NDP-αMSH
T3 construct: purchased Perkin Elmer Biosignal
T3 sequence (P41968 whole entry): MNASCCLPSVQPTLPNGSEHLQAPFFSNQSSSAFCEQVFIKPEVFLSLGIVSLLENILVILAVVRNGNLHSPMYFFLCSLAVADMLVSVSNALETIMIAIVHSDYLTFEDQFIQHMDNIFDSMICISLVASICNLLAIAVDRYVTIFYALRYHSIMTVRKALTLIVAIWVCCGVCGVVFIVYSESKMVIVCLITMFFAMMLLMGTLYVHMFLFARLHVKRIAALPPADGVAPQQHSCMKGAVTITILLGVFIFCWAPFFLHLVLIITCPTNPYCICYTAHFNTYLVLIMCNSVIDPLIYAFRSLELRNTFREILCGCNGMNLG
Procedure, shortened: (§2)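 Cloned human receptor membranes were coated onto FlashPlate wells and incubated with radioligand and compound (added from a 0.5 mM DMSO daughter plate) for 1 hour at room temperature in the dark. Scintillation counting gave percent inhibition, with DMSO defining total and reference ligand defining non-specific binding.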

Human μ-opioid (MOP) = target: T4, Human μ-opioid (MOP) (Homo sapiens, UniProt P35372); assay: Radioligand binding, human μ-opioid (MOP) membranes, FlashPlate, [3H]-Naloxone; conditions: compound at 10 μM, [3H]-Naloxone
T4 construct: purchased Perkin Elmer Biosignal
T4 sequence (P35372 whole entry): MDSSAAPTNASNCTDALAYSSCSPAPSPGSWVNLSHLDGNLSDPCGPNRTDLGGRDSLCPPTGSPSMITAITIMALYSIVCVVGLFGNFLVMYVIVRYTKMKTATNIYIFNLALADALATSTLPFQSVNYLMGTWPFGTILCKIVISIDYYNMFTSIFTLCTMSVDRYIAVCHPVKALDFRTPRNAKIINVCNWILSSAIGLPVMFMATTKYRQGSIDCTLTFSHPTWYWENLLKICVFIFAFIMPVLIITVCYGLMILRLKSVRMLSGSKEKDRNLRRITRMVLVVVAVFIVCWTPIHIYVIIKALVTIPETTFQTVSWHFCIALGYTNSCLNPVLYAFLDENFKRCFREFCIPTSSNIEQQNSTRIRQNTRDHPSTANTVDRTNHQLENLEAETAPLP
Procedure, shortened: as §2

Human neurokinin (NK1) = target: T5, Human neurokinin (NK1) (Homo sapiens, UniProt P25103); assay: Radioligand binding, human neurokinin NK1 membranes, filtration, [125I]-Substance P; conditions: compound at 10 μM, [125I]-Substance P
T5 construct: purchased Perkin Elmer Biosignal
T5 sequence (P25103 whole entry): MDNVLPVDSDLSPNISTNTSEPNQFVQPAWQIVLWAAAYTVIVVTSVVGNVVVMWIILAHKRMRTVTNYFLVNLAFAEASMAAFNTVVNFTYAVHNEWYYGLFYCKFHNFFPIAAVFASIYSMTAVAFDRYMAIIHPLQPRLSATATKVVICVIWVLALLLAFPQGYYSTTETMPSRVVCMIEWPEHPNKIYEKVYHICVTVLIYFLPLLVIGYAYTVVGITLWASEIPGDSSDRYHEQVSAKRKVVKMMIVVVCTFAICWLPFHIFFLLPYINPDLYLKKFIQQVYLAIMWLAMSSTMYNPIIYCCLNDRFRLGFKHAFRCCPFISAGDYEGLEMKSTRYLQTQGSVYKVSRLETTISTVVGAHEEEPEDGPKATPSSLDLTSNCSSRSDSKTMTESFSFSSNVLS
Procedure, shortened: as §1

[1] = target: T6, Human neuropeptide Y (NPY-Y1) (Homo sapiens, UniProt P25929); assay: Radioligand binding, human neuropeptide Y NPY-Y1 membranes, FlashPlate, [125I]-PYY; conditions: compound at 10 μM, [125I]-PYY
T6 construct: purchased Perkin Elmer Biosignal
T6 sequence (P25929 1-384): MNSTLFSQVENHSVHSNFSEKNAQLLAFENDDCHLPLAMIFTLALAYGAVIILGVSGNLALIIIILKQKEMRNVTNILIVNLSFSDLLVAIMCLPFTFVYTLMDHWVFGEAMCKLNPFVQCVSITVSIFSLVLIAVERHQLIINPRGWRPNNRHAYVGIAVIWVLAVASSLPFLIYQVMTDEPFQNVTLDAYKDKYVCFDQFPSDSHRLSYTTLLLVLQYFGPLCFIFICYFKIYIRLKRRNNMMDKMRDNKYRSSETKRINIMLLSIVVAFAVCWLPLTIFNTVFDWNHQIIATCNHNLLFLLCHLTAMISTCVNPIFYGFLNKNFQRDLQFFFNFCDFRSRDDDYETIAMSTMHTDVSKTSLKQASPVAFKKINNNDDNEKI
Procedure, shortened: as §2

Human melanocortin (MC5) = target: T7, Human melanocortin (MC5) (Homo sapiens, UniProt P33032); assay: Radioligand binding, human melanocortin MC5 membranes, FlashPlate, [125I]-NDP-αMSH; conditions: compound at 10 μM, [125I]-NDP-αMSH
T7 construct: purchased Perkin Elmer Biosignal
T7 sequence (P33032 whole entry): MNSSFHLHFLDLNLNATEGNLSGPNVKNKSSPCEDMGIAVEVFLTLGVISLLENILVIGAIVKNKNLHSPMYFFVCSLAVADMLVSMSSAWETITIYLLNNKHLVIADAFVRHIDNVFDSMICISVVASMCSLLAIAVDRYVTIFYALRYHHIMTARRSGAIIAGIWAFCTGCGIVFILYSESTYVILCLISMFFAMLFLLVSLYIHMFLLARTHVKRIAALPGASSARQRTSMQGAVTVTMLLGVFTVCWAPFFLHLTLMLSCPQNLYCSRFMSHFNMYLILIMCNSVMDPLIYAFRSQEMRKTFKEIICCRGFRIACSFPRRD
Procedure, shortened: as §2

Human δ-opioid (DOP) = target: T8, Human δ-opioid (DOP) (Homo sapiens, UniProt P41143); assay: Radioligand binding, human δ-opioid (DOP) membranes, FlashPlate, [3H]-Bremazocine; conditions: compound at 10 μM, [3H]-Bremazocine
T8 construct: purchased Perkin Elmer Biosignal
T8 sequence (P41143 whole entry): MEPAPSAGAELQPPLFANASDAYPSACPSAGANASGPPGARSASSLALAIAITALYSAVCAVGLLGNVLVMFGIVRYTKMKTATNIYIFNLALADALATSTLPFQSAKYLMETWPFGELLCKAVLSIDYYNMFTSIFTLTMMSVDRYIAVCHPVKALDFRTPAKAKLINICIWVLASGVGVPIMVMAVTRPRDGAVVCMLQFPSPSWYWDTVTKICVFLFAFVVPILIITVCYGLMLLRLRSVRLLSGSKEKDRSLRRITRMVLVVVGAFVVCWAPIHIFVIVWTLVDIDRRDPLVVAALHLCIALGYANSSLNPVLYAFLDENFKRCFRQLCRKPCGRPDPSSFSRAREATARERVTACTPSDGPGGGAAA
Procedure, shortened: as §2

[2] = target: T9, Human melanin-concentrating hormone (MCH1) (Homo sapiens, UniProt Q99705); assay: Radioligand binding, human melanin-concentrating hormone MCH1 membranes, FlashPlate, [125I]-S36057; conditions: compound at 10 μM
T9 construct: purchased Perkin Elmer Biosignal
T9 sequence (Q99705 whole entry): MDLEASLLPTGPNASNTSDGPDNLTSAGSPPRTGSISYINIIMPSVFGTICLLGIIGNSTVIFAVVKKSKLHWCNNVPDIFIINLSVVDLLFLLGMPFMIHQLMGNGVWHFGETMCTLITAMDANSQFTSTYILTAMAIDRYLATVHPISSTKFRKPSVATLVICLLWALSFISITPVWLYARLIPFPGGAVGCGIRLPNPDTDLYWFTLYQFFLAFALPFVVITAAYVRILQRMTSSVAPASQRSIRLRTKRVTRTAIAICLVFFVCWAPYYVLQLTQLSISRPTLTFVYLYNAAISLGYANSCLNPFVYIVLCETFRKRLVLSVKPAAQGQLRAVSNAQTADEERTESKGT
Procedure, shortened: as §2

Human Melanocortin (MC4) = target: T10, Human Melanocortin (MC4) (Homo sapiens, UniProt P32245); assay: Radioligand binding, human melanocortin MC4 membranes, FlashPlate, [125I]-NDP-αMSH; conditions: compound at 10 μM, [125I]-NDP-αMSH
T10 construct: purchased Perkin Elmer Biosignal
T10 sequence (P32245 whole entry): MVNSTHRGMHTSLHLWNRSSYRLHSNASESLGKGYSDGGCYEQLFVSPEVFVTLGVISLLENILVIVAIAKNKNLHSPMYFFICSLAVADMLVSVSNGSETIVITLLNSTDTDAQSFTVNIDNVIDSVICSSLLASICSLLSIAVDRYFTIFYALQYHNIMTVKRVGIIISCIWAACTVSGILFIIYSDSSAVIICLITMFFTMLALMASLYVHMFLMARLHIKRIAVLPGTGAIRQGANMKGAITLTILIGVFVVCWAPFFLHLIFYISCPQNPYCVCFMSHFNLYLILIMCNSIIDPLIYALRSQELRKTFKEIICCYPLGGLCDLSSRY
Procedure, shortened: as §2

Human opioid (ORL1) = target: T11, Human opioid (ORL1) (Homo sapiens, UniProt P41146); assay: Radioligand binding, human opioid ORL1 membranes, FlashPlate, [125I]-Nociceptin; conditions: compound at 10 μM, [125I]-Nociceptin
T11 construct: purchased Perkin Elmer Biosignal
T11 sequence (P41146 whole entry): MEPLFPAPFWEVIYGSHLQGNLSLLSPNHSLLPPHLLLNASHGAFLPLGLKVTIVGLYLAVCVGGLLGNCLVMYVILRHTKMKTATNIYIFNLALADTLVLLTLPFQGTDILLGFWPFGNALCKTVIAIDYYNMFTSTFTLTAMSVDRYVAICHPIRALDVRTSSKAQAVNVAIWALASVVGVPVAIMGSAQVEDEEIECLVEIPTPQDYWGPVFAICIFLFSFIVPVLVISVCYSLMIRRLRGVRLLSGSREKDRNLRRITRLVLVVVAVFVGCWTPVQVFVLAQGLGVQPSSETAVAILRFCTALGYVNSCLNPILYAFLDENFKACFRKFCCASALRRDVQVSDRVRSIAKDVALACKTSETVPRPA
Procedure, shortened: as §2

SMILES: COCC1OC(OCc2ccc3ccccc3c2)C(NC(=O)CNC(=N)N)C(OCc2ccc(-c3ccccc3)cc2)C1O (stereo not drawn) [compound 242]
- A11: inhibition of radioligand binding (Mouse urotensin (mUR2); FlashPlate): − (“−” indicates less than 50% inhibition at 10 μM)
- A2: inhibition of radioligand binding (Human κ-Opioid (KOP); filtration): − (“−” indicates less than 50% inhibition at 10 μM)
- A3: inhibition of radioligand binding (Human Melanocortin (MC3); FlashPlate): + (“+” indicates greater than 50% inhibition at 10 μM)
- A7: inhibition of radioligand binding (Human μ-opioid (MOP); FlashPlate): − (“−” indicates less than 50% inhibition at 10 μM)
- A8: inhibition of radioligand binding (Human neurokinin (NK1); filtration): + (“+” indicates greater than 50% inhibition at 10 μM)
- A9: inhibition of radioligand binding ([1]; FlashPlate): − (“−” indicates less than 50% inhibition at 10 μM)
- A5: inhibition of radioligand binding (Human melanocortin (MC5); FlashPlate): + (“+” indicates greater than 50% inhibition at 10 μM)
- A1: inhibition of radioligand binding (Human δ-opioid (DOP); FlashPlate): − (“−” indicates less than 50% inhibition at 10 μM)
- A6: inhibition of radioligand binding ([2]; [125I]-S36057, FlashPlate): − (“−” indicates less than 50% inhibition at 10 μM)
- A4: inhibition of radioligand binding (Human Melanocortin (MC4); FlashPlate): + (“+” indicates greater than 50% inhibition at 10 μM)
- A10: inhibition of radioligand binding (Human opioid (ORL1); FlashPlate): − (“−” indicates less than 50% inhibition at 10 μM)

SMILES: CO[C@H]1[C@H](O)[C@@H](COCc2ccc(-c3ccccc3)cc2)OC(OCCc2ccccc2)[C@@H]1NC(=O)CCCNC(=N)N (stereo partly drawn) [compound 112]
- A11 radioligand binding, percentage inhibition (Mouse urotensin (mUR2)): − (“−” indicates less than 50% inhibition at 10 μM)
- A2 radioligand binding, percentage inhibition (Human κ-Opioid (KOP)): − (“−” indicates less than 50% inhibition at 10 μM)
- A3 radioligand binding, percentage inhibition (Human Melanocortin (MC3)): + (“+” indicates greater than 50% inhibition at 10 μM)
- A7 radioligand binding, percentage inhibition (Human μ-opioid (MOP)): − (“−” indicates less than 50% inhibition at 10 μM)
- A8 radioligand binding, percentage inhibition (Human neurokinin (NK1)): + (“+” indicates greater than 50% inhibition at 10 μM)
- A9 radioligand binding, percentage inhibition [1]: − (“−” indicates less than 50% inhibition at 10 μM)
- A5 radioligand binding, percentage inhibition (Human melanocortin (MC5)): + (“+” indicates greater than 50% inhibition at 10 μM)
- A1 radioligand binding, percentage inhibition (Human δ-opioid (DOP)): − (“−” indicates less than 50% inhibition at 10 μM)
- A6 radioligand binding, percentage inhibition ([2]; [125I]-S36057): − (“−” indicates less than 50% inhibition at 10 μM)
- A4 radioligand binding, percentage inhibition (Human Melanocortin (MC4)): + (“+” indicates greater than 50% inhibition at 10 μM)
- A10 radioligand binding, percentage inhibition (Human opioid (ORL1)): − (“−” indicates less than 50% inhibition at 10 μM)

SMILES: CSC1OC(COCc2ccccc2)C(O)C(OCc2ccc3ccccc3c2)C1NC(=O)CCCN (stereo not drawn) [compound 304]
- A11: inhibition of radioligand binding, mouse urotensin (mUR2) (Mouse urotensin (mUR2)): − (“−” indicates less than 50% inhibition at 10 μM)
- A2: inhibition of radioligand binding, human κ-opioid (KOP) (Human κ-Opioid (KOP)): − (“−” indicates less than 50% inhibition at 10 μM)
- A3: inhibition of radioligand binding, human melanocortin (MC3) (Human Melanocortin (MC3)): − (“−” indicates less than 50% inhibition at 10 μM)
- A7: inhibition of radioligand binding, human μ-opioid (MOP) (Human μ-opioid (MOP)): − (“−” indicates less than 50% inhibition at 10 μM)
- A8: inhibition of radioligand binding, human neurokinin (NK1) (Human neurokinin (NK1)): + (“+” indicates greater than 50% inhibition at 10 μM)
- A9: inhibition of radioligand binding, human neuropeptide Y (NPY-Y1) [1]: − (“−” indicates less than 50% inhibition at 10 μM)
- A5: inhibition of radioligand binding, human melanocortin (MC5) (Human melanocortin (MC5)): − (“−” indicates less than 50% inhibition at 10 μM)
- A1: inhibition of radioligand binding, human δ-opioid (DOP) (Human δ-opioid (DOP)): − (“−” indicates less than 50% inhibition at 10 μM)
- A6: inhibition of radioligand binding, human melanin-concentrating hormone (MCH1) ([2]; [125I]-S36057): − (“−” indicates less than 50% inhibition at 10 μM)
- A4: inhibition of radioligand binding, human melanocortin (MC4) (Human Melanocortin (MC4)): − (“−” indicates less than 50% inhibition at 10 μM)
- A10: inhibition of radioligand binding, human opioid (ORL1) (Human opioid (ORL1)): − (“−” indicates less than 50% inhibition at 10 μM)
